Measurements taken from patent publication US20150064221A1, “COMPOUNDS HAVING IMMUNOMUDULATOR ACTIVITY” (priority 2012, published 2015).
“Also recorded” adds a separate entry of the source.

What was measured:
[1] = test system: various asynchronously growing cell lines (HeLa, Jurkat, RD, PBMCs, U937); experiment: Cell viability (MTT assay, P1/Annexin V staining); format: cell-based; design: viability: dose or concentration left out as unconfirmed
Description: (A) Cell viability was measured via the MTT assay after 48 hours of treatment. (B) TNF-α levels were measured 48 hours post LPS (5 μg/ml) stimulation. (C) CD4 T cells were stimulated with either ConA (10 μg/ml) or anti-CD3/CD28 beads (10 μg/ml), and proliferation was measured via 3H-thymidine incorporation.
VGX-1027 was tested for whether its effects were cell-type-specific.

[2] = test system: RIN-m5F and MIN6 insulinoma cell lines; experiment: Cytokine-stimulated insulinoma cell lines; format: cell-based
Description: Both results were determined 48 hours post stimulation, and VGX-1027 was added at the time of stimulation.
Insulinoma cell lines, which die following stimulation with either IL-1β/INF-γ or TNF-α/INF-γ, were used in this study. Specifically, cell lines RIN-m5F and MIN6 were treated with either IL-1β/INF-γ alone or IL-1β/INF-γ/VGX-1027, and TNF-α production, which is a consequence of stimulation with these factors, was measured.

Metabolite monitoring = format: in vitro ADME; conditions: isoxazole ring disruption, single oxidation, single glucuronidation; any species
Description: (§1) The highest plasma concentrations generally occurred in 1-2 hours. […] The highest level of inhibition was ˜35% for 2C19 at a 30 μM concentration. […] Lastly, VGX-1027 is stable in human liver S9 fractions (with phase 1 and 2 cofactors) with t1/2>90 minutes, which indicates a low likelihood of metabolism in the liver.

STAT3 = experiment: IL-6 induced STAT3 phosphorylation in CD4+ T cells (Western blot); format: cell-based; conditions: IL-6 20 ng/ml, 10 uM
Description: FIG. 17. Western blot (A) and relative densitometric analysis (B) of the levels of phospho-STAT3 in CD4+ T cells after stimulation with IL-6.
In vitro T-cell treatment: Naive, sorted CD4+ T cells were obtained from the University of Pennsylvania School of Medicine, Immunology Clinical Core, cultured in vitro with IL-6 (20 ng/ml) in the presence or absence of VGX1027 (10 uM) for 0, 30 min, 1 hr, 2 hrs and 5 hrs. At the end of the incubation period, cells were lysed for 30 min at 4° C. by using the Nonidet P-40 lysis buffer (Invitrogen) supplemented with a phosphatase inhibitor mixture (PhosSTOP) and a protease inhibitor mixture (Complete) as directed by the manufacturer (Roche Applied Science). Lysates were collected and spun at 10,000 rpm for 5 min at 4° C., and then, 50 ug of proteins were mixed with 2× sample buffer (Invitrogen) for subsequent 4-12% SDS-PAGE electrophoresis. Afterward, proteins were transferred to nitrocellulose using the iBlot Dry Blotting System (Invitrogen), immunodetection was performed with the SNAP i.d. Protein Detection System (Millipore) using specific p-STAT3 and STAT3 monoclonal antibodies (Cell Signaling), and the expressed proteins were visualized with HRP-conjugated goat antimouse IgG using an ECL detection system (Amersham Biosciences, Piscataway, N.J.).

[3] = test system: enterobacterial antigen-reactive CD4+CD25− T cells; conditions: in vitro; Mangano et al. 2008; cited from earlier work
COX-2 = COX-2 (Homo sapiens, UniProt P35354); experiment: COX-2 activity; format: biochemical
Description: as §1

CYP2C19 = CYP2C19 (Homo sapiens, UniProt P33261); experiment: CYP450 inhibition; format: in vitro ADME; conditions: human; 2C19 at 30 μM; read-out: highest level of inhibition
Description: as §1

CYP450 2C9 = CYP450 2C9 (Homo sapiens, UniProt P11712); experiment: CYP450 inhibition; format: in vitro ADME
Description: as §1

CYP450 2C19 = CYP450 2C19 (Homo sapiens, UniProt P33261); experiment: CYP450 inhibition; format: in vitro ADME; conditions: 2C19
Description: as §1

CYP450 2D6 = CYP450 2D6 (Homo sapiens, UniProt P10635); experiment: CYP450 inhibition; format: in vitro ADME
Description: as §1

CYP450 1A2 = CYP450 1A2 (Homo sapiens, UniProt P05177); experiment: CYP450 inhibition; format: in vitro ADME
Description: as §1

CYP450 3A4 = CYP450 3A4 (Homo sapiens, UniProt P08684); experiment: CYP450 inhibition; format: in vitro ADME
Description: as §1

COX-1 = COX-1 (Homo sapiens, UniProt P23219); experiment: COX-1 activity; format: biochemical
Description: as §1

[4] = test system: splenic mononuclear cells (SMNC); experiment: Ex vivo proliferation and cytokine synthesis of SMNC from treated mice; format: cell-based
Description: These experiments were carried out to explore if intraperitoneal (i.p.) or oral administration (p.o.) in mice with VGX-1027 could influence the proliferative response of SMNC and the production of IL-1β, IL-10, TNF-α, IFN-γ and MIF from isolated PM and SMNC. PM and SMNC isolated from mice treated in vivo with VGX-1027 for 7 consecutive days intraperitoneally (0.5 mg/mouse), or orally (2.5 mg/mouse), or isolated from control animals that received VGX-1027 vehicle (Na2HPO4/H2O), or were without any treatment. 24 h after the last VGX-1027 treatment, PM and SMNC were collected for further in vitro stimulation and analysis.

Sequence of CYP450 1A2 (P05177 whole entry): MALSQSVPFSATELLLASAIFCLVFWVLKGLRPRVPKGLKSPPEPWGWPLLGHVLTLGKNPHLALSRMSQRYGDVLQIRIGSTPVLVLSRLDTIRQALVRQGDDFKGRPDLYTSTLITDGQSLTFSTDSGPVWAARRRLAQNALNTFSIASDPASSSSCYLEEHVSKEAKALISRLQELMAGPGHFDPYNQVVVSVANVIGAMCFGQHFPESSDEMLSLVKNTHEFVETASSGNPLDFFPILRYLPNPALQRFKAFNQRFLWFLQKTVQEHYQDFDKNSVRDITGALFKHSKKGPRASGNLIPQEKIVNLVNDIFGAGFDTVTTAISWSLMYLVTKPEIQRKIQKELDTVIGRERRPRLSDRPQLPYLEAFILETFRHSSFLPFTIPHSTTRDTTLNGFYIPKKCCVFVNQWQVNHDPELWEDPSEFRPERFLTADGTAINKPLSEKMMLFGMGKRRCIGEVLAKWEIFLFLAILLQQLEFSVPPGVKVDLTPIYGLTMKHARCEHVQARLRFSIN
Sequence of COX-1 (P23219 24-599): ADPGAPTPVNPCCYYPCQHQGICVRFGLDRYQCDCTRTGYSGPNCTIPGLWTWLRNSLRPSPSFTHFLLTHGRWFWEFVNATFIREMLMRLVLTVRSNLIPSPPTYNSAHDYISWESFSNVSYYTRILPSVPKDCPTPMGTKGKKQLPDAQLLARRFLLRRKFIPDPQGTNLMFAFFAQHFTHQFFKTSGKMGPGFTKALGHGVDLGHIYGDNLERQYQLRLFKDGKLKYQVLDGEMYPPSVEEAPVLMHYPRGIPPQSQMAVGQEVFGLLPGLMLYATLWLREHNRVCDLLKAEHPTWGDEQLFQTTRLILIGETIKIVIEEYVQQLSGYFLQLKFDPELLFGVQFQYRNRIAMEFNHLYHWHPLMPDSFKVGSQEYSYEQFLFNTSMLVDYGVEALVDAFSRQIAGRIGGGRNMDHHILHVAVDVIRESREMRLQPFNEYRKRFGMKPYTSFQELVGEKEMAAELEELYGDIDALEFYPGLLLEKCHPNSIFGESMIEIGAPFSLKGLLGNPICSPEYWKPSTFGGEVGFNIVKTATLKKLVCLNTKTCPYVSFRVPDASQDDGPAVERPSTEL
Sequence of CYP450 3A4 (P08684 whole entry): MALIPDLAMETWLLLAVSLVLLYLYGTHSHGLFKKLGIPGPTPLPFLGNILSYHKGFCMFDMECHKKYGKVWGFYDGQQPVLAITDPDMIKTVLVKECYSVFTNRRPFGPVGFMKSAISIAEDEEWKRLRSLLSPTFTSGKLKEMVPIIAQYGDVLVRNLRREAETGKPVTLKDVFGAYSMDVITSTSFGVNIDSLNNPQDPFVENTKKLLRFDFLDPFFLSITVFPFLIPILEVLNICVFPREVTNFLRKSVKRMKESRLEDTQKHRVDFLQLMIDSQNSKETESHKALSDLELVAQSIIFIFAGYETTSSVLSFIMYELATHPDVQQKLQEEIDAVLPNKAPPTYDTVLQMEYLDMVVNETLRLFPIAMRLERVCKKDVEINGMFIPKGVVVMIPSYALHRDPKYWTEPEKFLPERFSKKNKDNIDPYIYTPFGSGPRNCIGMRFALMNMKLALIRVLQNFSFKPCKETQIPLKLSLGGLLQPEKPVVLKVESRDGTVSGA
Sequence of CYP450 2C9 (P11712 whole entry): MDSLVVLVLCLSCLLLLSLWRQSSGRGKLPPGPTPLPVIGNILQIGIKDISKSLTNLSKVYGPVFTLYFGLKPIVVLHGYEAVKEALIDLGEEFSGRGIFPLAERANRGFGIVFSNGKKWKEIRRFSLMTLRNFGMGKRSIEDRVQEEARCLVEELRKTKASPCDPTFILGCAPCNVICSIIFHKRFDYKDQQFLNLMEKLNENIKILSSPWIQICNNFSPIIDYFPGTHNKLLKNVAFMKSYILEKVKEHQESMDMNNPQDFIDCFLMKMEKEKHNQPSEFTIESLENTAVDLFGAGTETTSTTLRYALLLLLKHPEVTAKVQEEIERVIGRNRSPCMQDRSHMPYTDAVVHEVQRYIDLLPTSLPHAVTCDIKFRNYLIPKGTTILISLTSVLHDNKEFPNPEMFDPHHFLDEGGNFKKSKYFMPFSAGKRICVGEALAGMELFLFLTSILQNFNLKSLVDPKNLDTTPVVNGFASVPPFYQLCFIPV
Sequence of CYP450 2D6 (P10635 whole entry): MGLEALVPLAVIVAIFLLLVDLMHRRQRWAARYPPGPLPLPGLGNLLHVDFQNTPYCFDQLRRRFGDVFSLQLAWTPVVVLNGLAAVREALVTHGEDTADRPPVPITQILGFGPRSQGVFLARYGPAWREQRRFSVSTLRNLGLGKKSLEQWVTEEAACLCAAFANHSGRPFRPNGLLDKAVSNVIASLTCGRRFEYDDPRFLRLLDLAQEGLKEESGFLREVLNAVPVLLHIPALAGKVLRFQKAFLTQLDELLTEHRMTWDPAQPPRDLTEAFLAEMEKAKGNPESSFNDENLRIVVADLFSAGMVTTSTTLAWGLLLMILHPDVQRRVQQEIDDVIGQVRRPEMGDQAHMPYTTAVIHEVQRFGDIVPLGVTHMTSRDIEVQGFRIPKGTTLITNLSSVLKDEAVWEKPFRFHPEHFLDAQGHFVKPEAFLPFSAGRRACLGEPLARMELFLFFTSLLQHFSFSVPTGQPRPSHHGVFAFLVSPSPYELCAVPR
Sequence of CYP2C19 (P33261 whole entry): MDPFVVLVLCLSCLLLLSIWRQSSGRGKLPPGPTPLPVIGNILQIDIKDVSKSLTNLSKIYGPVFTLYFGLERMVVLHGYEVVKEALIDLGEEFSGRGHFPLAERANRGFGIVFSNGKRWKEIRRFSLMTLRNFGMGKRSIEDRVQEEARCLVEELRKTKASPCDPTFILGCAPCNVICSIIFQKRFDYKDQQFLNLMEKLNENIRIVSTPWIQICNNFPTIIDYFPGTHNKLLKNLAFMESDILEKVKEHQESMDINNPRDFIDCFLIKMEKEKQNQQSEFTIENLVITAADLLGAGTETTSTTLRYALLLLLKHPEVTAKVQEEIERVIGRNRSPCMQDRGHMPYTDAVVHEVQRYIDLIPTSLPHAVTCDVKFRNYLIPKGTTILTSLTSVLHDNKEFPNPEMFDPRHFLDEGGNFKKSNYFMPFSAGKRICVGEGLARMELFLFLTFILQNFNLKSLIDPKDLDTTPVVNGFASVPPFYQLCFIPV
Sequence of CYP450 2C19 (P33261 whole entry): as above
Sequence of COX-2 (P35354 18-604): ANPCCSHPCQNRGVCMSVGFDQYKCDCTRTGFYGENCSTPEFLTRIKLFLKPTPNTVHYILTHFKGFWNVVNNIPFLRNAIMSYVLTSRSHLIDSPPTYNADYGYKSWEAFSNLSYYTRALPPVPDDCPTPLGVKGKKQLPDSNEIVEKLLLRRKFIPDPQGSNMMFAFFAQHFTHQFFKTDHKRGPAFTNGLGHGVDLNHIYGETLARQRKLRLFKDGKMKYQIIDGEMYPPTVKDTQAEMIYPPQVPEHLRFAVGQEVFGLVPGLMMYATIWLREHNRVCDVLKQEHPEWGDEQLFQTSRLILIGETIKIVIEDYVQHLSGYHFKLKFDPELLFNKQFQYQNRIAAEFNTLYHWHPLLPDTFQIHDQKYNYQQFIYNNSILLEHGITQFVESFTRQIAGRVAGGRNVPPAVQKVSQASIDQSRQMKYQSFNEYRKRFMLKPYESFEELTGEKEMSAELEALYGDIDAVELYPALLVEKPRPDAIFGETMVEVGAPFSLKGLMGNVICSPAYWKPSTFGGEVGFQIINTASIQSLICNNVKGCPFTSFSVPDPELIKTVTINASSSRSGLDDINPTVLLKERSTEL

## O=C(O)CC1CC(c2ccccc2)=NO1 (centres unmarked) [VGX-1027, 3-phenyl-4,5-dihydro-5-isoxazoleacetic acid]
[1]; 48 hours, MTT
  viability: Greater than 80%
[1]; MTT assay and P1/Annexin V staining, up to 100 mM
  toxicity to cell lines: did not cause toxicity; also recorded: not toxic
[2]; IL-1β/INF-γ stimulation, both cell types, 48 hours
  TNF-α production: significantly repressed
[2]; IL-1β/INF-γ with co-treatment, 48 hours
  cell viability: over 60%
[2]; IL-1β/INF-γ/TNF-α
  cell viability with exogenous rTNF-α: prevented the protective effect
Metabolite monitoring
  metabolite peaks for the 3 monitored masses: no metabolite peaks were observed
STAT3
  magnitude of STAT3 phosphorilation: overall reduction
  time of maximum STAT3 activation after IL-6: 1 h
[3]
  proliferation of enterobacterial antigen-reactive CD4+CD25− T cells: inhibits
COX-2
  inhibition of COX-2 activity: no significant inhibition
CYP2C19
  inhibition at 30 µM: ~35%
CYP450 2C9
  CYP450 inhibition: no significant inhibition
CYP450 2C19
  CYP450 inhibition: no significant inhibition
CYP450 2D6
  CYP450 inhibition: no significant inhibition
CYP450 1A2
  CYP450 inhibition: no significant inhibition
CYP450 3A4
  CYP450 inhibition: no significant inhibition
COX-1
  inhibition of COX-1 activity: no significant inhibition
[4]
  IFN-γ production: normal capacity
  IL-1 β production: normal capacity
  IL-10 production: normal capacity
  MIF expression: normal expression pattern
  TNF-α production: normal capacity
[4]; mice treated 7 days
  capacity to proliferate: normal capacity
